Assay results as given in publication PMC6237173, “Synthesis of novel 6,7-dimethoxy-4-anilinoquinolines as potent c-Met inhibitors” (Journal of Enzyme Inhibition and Medicinal Chemistry, 2018).

Legend:
[1] = system: MCF-7 (human breast cancer) cell line; assay: Cell proliferation assay (MTT), MCF-7; format: cell-based; details: MCF7, 48 h exposure, n = 3 (mean ± SD), read-out: Proliferative inhibition IC50, MCF-7
Method: (§1) The anti-proliferative activities of the prepared compounds (12a-12s) were evaluated against A549, MCF-7 and MKN-45 cell lines by MTT assay in vitro. Briefly, tumour cells were cultured to log phase in RPMI 1640 medium supplemented with 10% foetal bovine serum (FBS). After diluting to 2 × 10^4 cells mL^−1 with the complete medium, 100 µL of the obtained cell suspension was added to each well of 96-well culture plates. Subsequently, incubation was performed at 37 °C in 5% CO2 for 24 h before the anti-proliferative assessment. Tested samples at pre-set concentrations were added to 6 wells with cabozantinib as a positive reference. After 48 h exposure period, 40 µL of PBS containing 2.5 mg mL^−1 of MTT was added to each well. Four hours later, 100 µL extraction solution (10% SDS-5% isobutyl alcohol-0.010M HCl) was added. After an overnight incubation at 37°C, the absorbance was measured at a wavelength of 570 nm with an ELISA microplate reader. All compounds were tested three times in each tumour cell lines. The IC50 values were the averages of three determinations and calculated by concentration-response curve fitting method.
(§2) All the synthesised compounds […] were evaluated for their antiproliferation activities against A549 (human lung cancer), MCF-7 (human breast cancer) and MKN-45 (human gastric cancer) cell lines by MTT assay, using cabozantinib as the positive control.

c-Met kinase = biological target: T1, c-Met kinase (Homo sapiens, UniProt P08581); assay: c-Met inhibition assay (Caliper motility shift assay); format: biochemical; details: for c-Met inhibition % Inhibition (10 μΜ): 10 μΜ compound; for c-Met inhibition % Inhibition (10 μΜ) / IC50: n = 3 (mean ± SD); for c-Met inhibitory activity in words: SAR statement, ortho-substituted compounds; for fold lower c-Met activity than compound 12c: versus 12c
T1 construct: purchased Carna
Method: A Caliper motility shift assay was applied to test the potency of synthesised compounds against c-Met kinase. Briefly, the compounds were dissolved in DMSO (Sigma) at 0.5 mM concentration, and then were diluted 50× to the final desired highest inhibitor concentration (10 μM) in reaction by DMSO. For all compounds, 100 μL of the diluted compound solution in tubes was transferred to a well on a 96-well plate (Corning) and was serially diluted 10× by transferring 10 μL dilution to 90 μL DMSO in the next well. 100 μL DMSO was added to two empty wells in the same 96-well plate for no compound control and no enzyme control. The plate was marked as source plate. 10 μL of compound solution from source plate was transferred to a new 96-well plate as the intermediate plate. […] After that, 5 μL solution from each well of the intermediate plate was transferred to a 384-well plate (Corning) as the assay plate in duplicates.c-Met kinase (Carna) was added in 1× kinase base buffer to prepare 2.5× enzyme solution, and FAM-labled peptide (GL Biochem) and ATP (Sigma) were added in 1× kinase base buffer to prepare 2.5× peptide solution. 10 μL of 2.5× enzyme solution was added to each well of the 384-well assay plate that already contained 5 μL of compound in 10% DMSO, and then incubated at room temperature for 10 min. […] The data were collected on Caliper and the conversion data were copied from Caliper program.
IC50 values were calculated from three independent experiments by fitting the data in XLfit with the following equation: Y = Bottom + (Top-Bottom)/(1 + (IC50/X)^HillSlope).

[2] = system: MKN-45 (human gastric cancer) cell line; assay: Cell proliferation assay (MTT), MKN-45; format: cell-based; details: 48 h exposure, n = 3 (mean ± SD), read-out: Proliferative inhibition IC50, MKN-45
Method: as §1, §2

[3] = system: A549 (human lung cancer) cell line; assay: Cell proliferation assay (MTT), A549; format: cell-based; details: 48 h exposure, n = 3 (mean ± SD), read-out: Proliferative inhibition IC50, A549
Method: as §1, §2

T1 sequence (P08581 25-1390): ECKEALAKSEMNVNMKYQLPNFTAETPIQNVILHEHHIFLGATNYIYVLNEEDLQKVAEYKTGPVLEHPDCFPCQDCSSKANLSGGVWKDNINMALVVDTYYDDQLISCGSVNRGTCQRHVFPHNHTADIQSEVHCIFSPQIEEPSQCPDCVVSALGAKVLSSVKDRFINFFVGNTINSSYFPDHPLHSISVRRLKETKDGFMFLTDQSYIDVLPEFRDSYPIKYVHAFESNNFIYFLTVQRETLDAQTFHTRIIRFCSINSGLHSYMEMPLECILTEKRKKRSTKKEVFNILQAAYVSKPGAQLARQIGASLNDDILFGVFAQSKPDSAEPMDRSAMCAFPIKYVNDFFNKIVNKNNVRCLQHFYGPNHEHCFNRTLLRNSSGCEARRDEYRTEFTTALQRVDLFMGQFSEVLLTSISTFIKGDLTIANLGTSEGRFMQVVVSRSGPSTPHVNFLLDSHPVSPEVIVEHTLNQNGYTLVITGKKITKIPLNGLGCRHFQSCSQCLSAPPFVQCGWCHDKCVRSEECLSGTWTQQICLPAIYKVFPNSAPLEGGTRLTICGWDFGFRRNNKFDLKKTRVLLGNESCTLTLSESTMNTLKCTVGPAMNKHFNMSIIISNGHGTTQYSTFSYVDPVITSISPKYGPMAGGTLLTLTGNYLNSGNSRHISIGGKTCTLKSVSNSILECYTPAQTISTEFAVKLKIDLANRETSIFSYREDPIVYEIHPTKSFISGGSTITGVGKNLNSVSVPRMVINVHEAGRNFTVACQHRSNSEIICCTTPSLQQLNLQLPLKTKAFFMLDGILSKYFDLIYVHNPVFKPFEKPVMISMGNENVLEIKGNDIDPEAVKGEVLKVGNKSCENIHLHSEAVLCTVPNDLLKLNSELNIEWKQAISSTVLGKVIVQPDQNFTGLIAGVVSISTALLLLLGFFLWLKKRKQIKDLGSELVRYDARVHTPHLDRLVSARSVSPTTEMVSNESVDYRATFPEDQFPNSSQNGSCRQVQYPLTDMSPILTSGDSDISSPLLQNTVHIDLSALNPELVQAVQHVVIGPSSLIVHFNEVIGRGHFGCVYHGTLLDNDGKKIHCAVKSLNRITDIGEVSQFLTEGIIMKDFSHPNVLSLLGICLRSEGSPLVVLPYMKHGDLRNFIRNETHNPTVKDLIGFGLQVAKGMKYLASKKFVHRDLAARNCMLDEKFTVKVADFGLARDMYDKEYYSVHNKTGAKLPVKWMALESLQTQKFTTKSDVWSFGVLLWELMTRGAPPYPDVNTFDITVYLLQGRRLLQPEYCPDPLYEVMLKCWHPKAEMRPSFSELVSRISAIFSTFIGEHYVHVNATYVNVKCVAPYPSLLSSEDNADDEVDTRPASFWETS

Row | Compound | IC50 [1] | melting point | c-Met inhibition % Inhibition (10 μΜ) (c-Met kinase) | c-Met inhibitory activity in words (c-Met kinase) | IC50 [2] | IC50 [3] | IC50 (c-Met kinase) | fold more potent c-Met activity than compound 12b (c-Met kinase; ratio of c-Met IC50 values, versus 12b) | fold lower c-Met activity than compound 12c (c-Met kinase; ratio of c-Met IC50 values)
1 | COc1cc2nccc(Nc3ccc4nc(-c5ccccc5F)[nH]c4c3)c2cc1OC [Compound 12a, N-(2–(2-fluorophenyl)-1H-benzo[d]imidazol-6-yl)-6,7-dimethoxyquinolin-4-amine] | > 100 µM | 247 to 249 °C | 16.9 ± 3.5% | diminished activity | > 100 µM | > 100 µM | – | – | –
2 | COc1cc2nccc(Nc3ccc4nc(-c5cccc(F)c5)[nH]c4c3)c2cc1OC [Compound 12b, N-(2–(3-fluorophenyl)-1H-benzo[d]imidazol-6-yl)-6,7-dimethoxyquinolin-4-amine] | 48.6 ± 5.2 µM | 286 to 288 °C | 62.8 ± 1.2% | – | 57.5 ± 1.9 µM | 45 ± 3.3 µM | 1.2 ± 0.4 µM | – | –
3 | COc1cc2nccc(Nc3ccc4nc(-c5ccc(F)cc5)[nH]c4c3)c2cc1OC [Compound 12c, N-(2–(4-fluorophenyl)-1H-benzo[d]imidazol-6-yl)-6,7-dimethoxyquinolin-4-amine] | 11.3 ± 1.6 µM | 312 to 315 °C | 89.2 ± 0.3% | – | 21 ± 1.8 µM | 15.6 ± 2.5 µM | 0.11 ± 0.02 µM | 11 fold | –
4 | COc1cc2nccc(Nc3ccc4nc(-c5ccccc5Cl)[nH]c4c3)c2cc1OC [Compound 12d, N-(2–(2-chlorophenyl)-1H-benzo[d]imidazol-6-yl)-6,7-dimethoxyquinolin-4-amine] | > 100 µM | 287 to 290 °C | 17.4 ± 3.7% | – | > 100 µM | > 100 µM | – | – | –
5 | COc1cc2nccc(Nc3ccc4nc(-c5cccc(Cl)c5)[nH]c4c3)c2cc1OC [Compound 12e, N-(2–(3-chlorophenyl)-1H-benzo[d]imidazol-6-yl)-6,7-dimethoxyquinolin-4-amine] | 63.5 ± 4.8 µM | 250 to 252 °C | 54.5 ± 6.9% | – | 85.7 ± 3.7 µM | 53.8 ± 5 µM | 4.8 ± 0.5 µM | – | –
6 | COc1cc2nccc(Nc3ccc4nc(-c5ccc(Cl)cc5)[nH]c4c3)c2cc1OC [Compound 12f, N-(2–(4-chlorophenyl)-1H-benzo[d]imidazol-6-yl)-6,7-dimethoxyquinolin-4-amine] | 29.2 ± 1.4 µM | 330 to 332 °C | 63.8 ± 0.7% | – | 39.5 ± 2.5 µM | 32.4 ± 3.6 µM | 0.93 ± 0.1 µM | – | about 9 fold
7 | COc1cc2nccc(Nc3ccc4nc(-c5ccc(Br)cc5)[nH]c4c3)c2cc1OC [Compound 12g, N-(2–(4-bromophenyl)-1H-benzo[d]imidazol-6-yl)-6,7-dimethoxyquinolin-4-amine] | 46.3 ± 3.7 µM | 280 to 282 °C | 54.2 ± 0.1% | – | 55 ± 3.4 µM | 38.5 ± 2.4 µM | 5.5 ± 0.9 µM | – | about 50 fold
8 | COc1cc2nccc(Nc3ccc4nc(-c5ccccc5I)[nH]c4c3)c2cc1OC [Compound 12h, N-(2–(2-iodophenyl)-1H-benzo[d]imidazol-6-yl)-6,7-dimethoxyquinolin-4-amine] | > 100 µM | 207 to 209 °C | 21.6 ± 2.5% | – | > 100 µM | 92.4 ± 5.1 µM | – | – | –
9 | COc1cc2nccc(Nc3ccc4nc(-c5cccc(I)c5)[nH]c4c3)c2cc1OC [Compound 12i, N-(2–(3-iodophenyl)-1H-benzo[d]imidazol-6-yl)-6,7-dimethoxyquinolin-4-amine] | 30.5 ± 1.6 µM | 201 to 203 °C | 66.0 ± 0.8% | – | 36.1 ± 2.7 µM | 23.8 ± 2 µM | 0.54 ± 0.13 µM | – | –
10 | COc1cc2nccc(Nc3ccc4nc(-c5ccccc5C)[nH]c4c3)c2cc1OC [Compound 12j, 6,7-Dimethoxy-N-(2-(o-tolyl)-1H-benzo[d]imidazol-6-yl)quinolin-4-amine] | > 100 µM | 174 to 175 °C | 23.0 ± 0.4% | – | > 100 µM | > 100 µM | – | – | –
11 | COc1cc2nccc(Nc3ccc4nc(-c5cccc(C)c5)[nH]c4c3)c2cc1OC [Compound 12k, 6,7-Dimethoxy-N-(2-(m-tolyl)-1H-benzo[d]imidazol-6-yl)quinolin-4-amine] | 78.3 ± 3.5 µM | 339 to 342 °C | 52.7 ± 1.6% | – | 87.2 ± 6.7 µM | 72.6 ± 6.5 µM | 8.5 ± 2 µM | – | –
12 | COc1cc2nccc(Nc3ccc4nc(-c5ccc(C)cc5)[nH]c4c3)c2cc1OC [Compound 12l, 6,7-Dimethoxy-N-(2-(p-tolyl)-1H-benzo[d]imidazol-6-yl)quinolin-4-amine] | 24 ± 0.9 µM | 316 to 319 °C | 69.0 ± 1.2% | – | 31.8 ± 1.4 µM | 27.3 ± 1.6 µM | 0.32 ± 0.07 µM | – | –
13 | CCc1ccc(-c2nc3ccc(Nc4ccnc5cc(OC)c(OC)cc45)cc3[nH]2)cc1 [Compound 12m, N-(2–(4-ethylphenyl)-1H-benzo[d]imidazol-6-yl)-6,7-dimethoxyquinolin-4-amine] | 18.4 ± 2.1 µM | 210 to 212 °C | 95.0 ± 0.3% | – | 14.9 ± 0.7 µM | 12.5 ± 1.3 µM | 0.056 ± 0.012 µM | – | –
14 | COc1cc2nccc(Nc3ccc4nc(-c5ccc(C(C)(C)C)cc5)[nH]c4c3)c2cc1OC [Compound 12n, N-(2–(4-(tert-butyl)phenyl)-1H-benzo[d]imidazol-6-yl)-6,7-dimethoxyquinolin-4-amine] | 6.1 ± 0.6 µM | 257 to 259 °C | 97.1 ± 3.5% | – | 13.4 ± 0.5 µM | 7.3 ± 1 µM | 0.03 ± 0.008 µM | – | –
15 | COc1cc2nccc(Nc3ccc4nc(-c5ccccc5OC)[nH]c4c3)c2cc1OC [Compound 12o, 6,7-Dimethoxy-N-(2–(2-methoxyphenyl)-1H-benzo[d]imidazol-6-yl)quinolin-4-amine] | > 100 µM | 164 to 166 °C | 24.2 ± 0.1% | – | > 100 µM | > 100 µM | – | – | –
16 | COc1cc2nccc(Nc3ccc4nc(-c5c(F)cccc5F)[nH]c4c3)c2cc1OC [Compound 12p, N-(2–(2,6-difluorophenyl)-1H-benzo[d]imidazol-6-yl)-6,7-dimethoxyquinolin-4-amine] | > 100 µM | 208 to 210 °C | 25.9 ± 1.5% | loss of activity | > 100 µM | > 100 µM | – | – | –
17 | COc1cc2nccc(Nc3ccc4nc(-c5c(Cl)cccc5Cl)[nH]c4c3)c2cc1OC [Compound 12q, N-(2–(2,6-dichlorophenyl)-1H-benzo[d]imidazol-6-yl)-6,7-dimethoxyquinolin-4-amine] | > 100 µM | 254 to 257 °C | 37.0 ± 4.0% | loss of activity | > 100 µM | > 100 µM | – | – | –
18 | COc1cc2nccc(Nc3ccc4nc(-c5ccc(Cl)c(Cl)c5)[nH]c4c3)c2cc1OC [Compound 12r, N-(2–(3,4-dichlorophenyl)-1H-benzo[d]imidazol-6-yl)-6,7-dimethoxyquinolin-4-amine] | 79.2 ± 1.7 µM | 336 to 338 °C | 55.4 ± 2.9% | – | > 100 µM | 83.6 ± 4 µM | 5.3 ± 1.6 µM | – | –
19 | COc1cc2nccc(Oc3ccc(NC(=O)C4(C(=O)Nc5ccc(F)cc5)CC4)cc3)c2cc1OC [cabozantinib, reference compound] | 7.2 ± 0.5 µM | – | – | – | 11.8 ± 1.4 µM | 4.5 ± 0.8 µM | – | – | –
